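96-well plates; 48 h exposure; 5 concentrations. Endpoints by linear interpolation between flanking doses. Not reached: highest tested concentration assigned. The concentration for 50% growth inhibition is given as GI50.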 The source made the active and inactive calls. Cut-off read from the data, not from the text of the source: active = GI50 up to about 1.1 µM and inactive = higher.
What was measured:
Assay in all cases: growth of human tumour cells (NCI), 48 h
[1] = system: 786-0
[2] = system: A549
[3] = system: CCRF-CEM
[4] = system: COLO 205
[5] = system: EKVX
[6] = system: HCT-15
[7] = system: KM12
[8] = system: LOX IMVI
[9] = system: MDA-MB-231
[10] = system: NCI-H460
[11] = system: NCI/ADR-RES
[12] = system: OVCAR-4
[13] = system: OVCAR-5
[14] = system: OVCAR-8
[15] = system: PC-3
[16] = system: RXF 393
[17] = system: SF-295
[18] = system: SK-MEL-28
[19] = system: SNB-75
[20] = system: SR

SMILES | GI50 [1] | GI50 [2] | GI50 [3] | GI50 [4] | GI50 [5] | GI50 [6] | GI50 [7] | GI50 [8] | GI50 [9] | GI50 [10] | GI50 [11] | GI50 [12] | GI50 [13] | GI50 [14] | GI50 [15] | GI50 [16] | GI50 [17] | GI50 [18] | GI50 [19] | GI50 [20]
COc1ccc(OC/C(N)=N/NC(=O)c2ccncc2)cc1 | > 100 µM (inactive) | > 100 µM (inactive) | > 100 µM (inactive) | > 100 µM (inactive) | > 100 µM (inactive) | > 100 µM | > 100 µM (inactive) | > 100 µM (inactive) | > 100 µM (inactive) | > 100 µM (inactive) | > 100 µM (inactive) | > 100 µM (inactive) | > 100 µM (inactive) | > 100 µM (inactive) | > 100 µM (inactive) | > 100 µM (inactive) | > 100 µM (inactive) | > 100 µM (inactive) | 8.22 µM (inactive) | –
N=C(N)Nc1ccc(CC(N)C(=O)NCC(=O)C(CC(=O)O)c2ncc(NC(=O)C(F)(F)F)o2)cc1 (centres undefined) | > 25 µM (inactive) | > 25 µM (inactive) | > 25 µM (inactive) | > 25 µM (inactive) | > 25 µM (inactive) | > 25 µM | > 25 µM (inactive) | > 25 µM (inactive) | > 25 µM (inactive) | > 25 µM (inactive) | > 25 µM (inactive) | > 25 µM (inactive) | > 25 µM (inactive) | > 25 µM (inactive) | > 25 µM (inactive) | > 25 µM (inactive) | > 25 µM (inactive) | > 25 µM (inactive) | > 25 µM (inactive) | –
O=C(O)c1cnc2[nH]ccn2c1=O | > 100 µM (inactive) | > 100 µM (inactive) | > 100 µM (inactive) | > 100 µM (inactive) | > 100 µM (inactive) | > 100 µM | – | – | > 100 µM (inactive) | > 100 µM (inactive) | > 100 µM (inactive) | > 100 µM (inactive) | > 100 µM (inactive) | > 100 µM (inactive) | > 100 µM (inactive) | – | > 100 µM (inactive) | > 100 µM (inactive) | > 100 µM (inactive) | > 100 µM (inactive)
CC1(C)OCC(C2CCC3(C)C4=CCC5C(C)(C)C(O)CCC5(C)C4CCC23C)CC(O)C1O (centres undefined) | 13.4 µM (inactive) | 16.5 µM (inactive) | 25.8 µM (inactive) | 22.5 µM (inactive) | 14.6 µM (inactive) | 15.8 µM | 14.5 µM (inactive) | 17.1 µM (inactive) | 18.1 µM (inactive) | 17 µM (inactive) | 20.3 µM (inactive) | 14.1 µM (inactive) | 19.1 µM (inactive) | 17.5 µM (inactive) | 11.3 µM (inactive) | – | 16.9 µM (inactive) | 17.3 µM (inactive) | 15.1 µM (inactive) | –
CCOC(=O)/C=C(\C(=O)OCC)n1cc(Cl)c(=O)n(CC(=O)OCC)c1=O | 1.73 µM (inactive) | 19.9 µM (inactive) | 5.09 µM (inactive) | 0.697 µM (active) | 14.3 µM (inactive) | 3.17 µM | 18.2 µM (inactive) | 4.99 µM (inactive) | 16 µM (inactive) | 23.4 µM (inactive) | 27.6 µM (inactive) | 15.2 µM (inactive) | 18.1 µM (inactive) | 2.19 µM (inactive) | 14.5 µM (inactive) | 1.69 µM (inactive) | > 43.5 µM (inactive) | 16.7 µM (inactive) | 18.7 µM (inactive) | –
N=C(N)N/N=C/c1c(-c2ccc(Cl)cc2)nc2sc(Cl)cn12 | 1.58 µM (inactive) | 1.7 µM (inactive) | – | 0.923 µM (active) | 1.85 µM (inactive) | 1.36 µM | 1.03 µM (active) | 0.169 µM (active) | 1.82 µM (inactive) | 1.69 µM (inactive) | 1.79 µM (inactive) | 1.02 µM (active) | 1.67 µM (inactive) | 1.27 µM (inactive) | 3 µM (inactive) | – | 1.79 µM (inactive) | 1.81 µM (inactive) | 1.41 µM (inactive) | –

Source: ChEMBL document CHEMBL1201862, “PubChem BioAssay data set” (2004)
